Experimental data reported in PMC3586143 (Drugs in R&D, 2012).
Like-named read-outs stand apart in the source and are kept apart here.

Legend:
clinical = settings: male, human, in vivo, po, 200 mg/day; for AUC: AUC24, gmean; for Cmax: gmean
[1] = in vivo; for tmax, median (range): 300 mg
[2] = system: vascular endothelial growth factor and epidermal growth factor; settings: cellular assays for VEGF and EGF; cited from earlier work
healthy male subjects [3] = assay: Study A: safety and tolerability assessments; format: in vivo
[4] = for increase in AUC504: vandetanib + itraconazole compared with vandetanib alone
[5] = for half-life: t½, gmean (CV%)
healthy male subjects [6] = assay: Study B: safety and tolerability assessments; format: in vivo

CCC(C)n1ncn(-c2ccc(N3CCN(c4ccc(OCC5COC(Cn6cncn6)(c6ccc(Cl)cc6Cl)O5)cc4)CC3)cc2)c1=O (stereo not shown) [itraconazole, reference compound]
AUC (clinical): 5040 ng·h/mL
Cmax (clinical): 424 ng/mL

COc1cc2c(Nc3ccc(Br)cc3F)ncnc2cc1OCC1CC[N+](C)([O-])CC1 (stereo not shown) [vandetanib N-oxide]
increase in AUCct [1]: 126%
time post-dose by which plasma concentrations were nonquantifiable [1]: 96 to 240 h
tmax, median (range) [1]: 7 h
activity relative to vandetanib (fold less active) [2]: > 50 fold

CC(O)C(C)n1ncn(-c2ccc(N3CCN(c4ccc(OCC5COC(Cn6cncn6)(c6ccc(Cl)cc6Cl)O5)cc4)CC3)cc2)c1=O (stereo not shown) [hydroxy-itraconazole]
AUC (clinical): 7690 ng·h/mL
Cmax (clinical): 413 ng/mL

COc1cc2c(Nc3ccc(Br)cc3F)ncnc2cc1OCC1CCNCC1 [N-desmethylvandetanib]
AUC504 of metabolite as % of AUC504 of vandetanib [1]: ≈ 7%
tmax, median (range) [1]: 5 h

COc1cc2c(Nc3ccc(Br)cc3F)ncnc2cc1OCC1CCN(C)CC1 [vandetanib]
tolerability (healthy male subjects [3]; single dose 300 mg): well tolerated
change in mean corrected QT (QTC) interval (healthy male subjects [3]; vandetanib alone or in combination with rifampicin): no clinically important changes
subjects with increase from baseline in QTC interval of >60 ms (healthy male subjects [3]; vandetanib in combination with rifampicin): One subject
subjects reporting adverse events (healthy male subjects [3]; vandetanib in the presence of rifampicin): 31.3%
Tmax ([4]; male, human, in vivo, 300 mg): 5 h
increase in AUC504 [4]: 9%
increase in AUC504 ([4]; listed as Vandetanib): about 9%
median time to Cmax ([5]; both studies (A and B), vandetanib 300 mg single dose): 5 to 6 h
Tmax ([5]; male, human, plasma, oral, 300 mg): 6 h
half-life ([5]; male, human, plasma, oral, 300 mg, after vandetanib 300 mg alone): 218 h
half-life ([5]; male, human, plasma, oral, after vandetanib 300 mg + rifampicin): 116 h
subjects with increase from baseline in QTC of >60 ms (healthy male subjects [6]): Three subjects
increase in mean QTC interval after the dose (healthy male subjects [6]; at each timepoint): ≤ 20 ms
tolerability (healthy male subjects [6]; single dose 300 mg): well tolerated
subjects reporting adverse events (healthy male subjects [6]; vandetanib in the absence of itraconazole): 31.3%
